{"source": "PubChem BioAssay (NCI)", "note": "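The compound was tested at five concentrations on cells cultured in 96-well plates, with a 48-hour exposure period. Abbreviation: GI50, concentration required for 50% inhibition of growth. Definition used: TGI = concentration required for complete inhibition of growth.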", "data": [{"test_system": "MDA-MB-468 breast", "assay": "NCI tumour cell line growth inhibition, 48 h", "units": {"GI50": "nM", "TGI": "nM"}, "values": [{"molecule": "C=C(C)[C@@H]1CC[C@]2(C)[C@H](C=CC3=C4C[C@@](C)(CO)CC[C@]4(C)CC[C@]32C)[C@@]1(C)CCCN", "GI50": 1580, "TGI": 3200}, {"molecule": "ClC1=C(Cl)C(Cl)=C(Cl)C1=Cc1ccc(Cl)cc1", "GI50": 251, "TGI": 869}, {"molecule": "O=C(NO)c1cnc(N2CCN(S(=O)(=O)c3ccc4ccccc4c3)CC2)nc1", "GI50": 74.3, "TGI": 6500}, {"molecule": "O=c1cc(-c2ccccc2Cl)[nH]c2cc3c(cc12)OCO3", "GI50": 13900, "TGI": "> 100000"}, {"molecule": "CCN(CC)c1ccc2nc3c4ccccc4c(=NC(=O)c4ccccc4-c4c5ccc(N(CC)CC)cc5[o+]c5cc(N(CC)CC)ccc45)cc-3oc2c1", "GI50": 1010, "TGI": 2430}, {"molecule": "CCS/C(Nc1ccccc1)=C(\\C#N)C(=O)N/N=C/c1ccc(Cl)cc1Cl", "GI50": 2600, "TGI": 9190}, {"molecule": "CCN1C(=O)N(CC)C2C1NN=c1s/c(=C\\c3ccccc3)c(=O)n12", "note": "(centres undefined)", "GI50": 86.7, "TGI": "> 100000"}, {"molecule": "Brc1ccc(Br)nn1", "GI50": 1140, "TGI": 2470}, {"molecule": "CC(=O)N[C@@H](Cc1ccc(OP(=O)(O)O)cc1)C(=O)N[C@H]1CCC(=O)N2CCC[C@@H](C(=O)NCc3ccc(O)cc3)N2C1=O", "GI50": "> 25000", "TGI": "> 25000"}, {"molecule": "CCCCCc1c(C)[nH]c(/C=c2\\[nH]/c(=C3/C=c4ccccc4=N3)cc2OC)c1C", "GI50": 59.1, "TGI": 1630}, {"molecule": "CC(=O)OCC(=O)C1(O)C(C)CC2C3C=C(C)C4=Cc5c(cnn5-c5ccccc5)CC4(C)C3C(O)CC21C", "note": "(centres undefined)", "GI50": 2030, "TGI": 4330}, {"molecule": "Cc1cc2c(C(C)C)c(O)c(O)c(C=O)c2c(O)c1-c1c(C)cc2c(C(C)C)c(O)c(O)c(C=O)c2c1O", "note": "(tested in a mixture with another compound)", "GI50": 1010, "TGI": 3750}, {"molecule": "Cc1cc2nc3c4ccccc4n(CCN(C)C)c3nc2cc1C", "GI50": 1320, "TGI": 3620}, {"molecule": "N#CC[C@H](C1CCCC1)n1cc(-c2ncnc3[nH]ccc23)cn1", "GI50": 23200, "TGI": 78800}, {"molecule": "CC[C@H](C)[C@H](NC(=O)C12CC(NC(C)=O)(C1)C2)C(=O)N(C)[C@H](C[C@@H](OC(C)=O)c1nc(C(=O)N[C@@H](Cc2ccccc2)C[C@H](C)C(=O)OC)cs1)C(C)C", "GI50": 58.4, "TGI": "> 9300"}, {"molecule": "CCNCCNc1cc(-c2cccc(C(F)(F)F)c2)c(C#N)c2nc3ccccc3n12", "GI50": 1340, "TGI": 2840}, {"molecule": "CS[C@@]1(C(=O)Nc2ccc3[nH]nc(-c4ccc(OC(C)C)nc4)c3c2)CCN(CC(=O)N2CC=C(c3ccc(-c4ncn(C)n4)cc3)CC2)C1", "GI50": "> 100000", "TGI": "> 100000"}, {"molecule": "COc1ccc(-n2sc(=O)n(Cc3ccc(COC(=O)C(C)c4ccc(CC(C)C)cc4)cc3)c2=O)cc1", "note": "(centres undefined)", "GI50": 925, "TGI": 2130}, {"molecule": "C[C@@H](Oc1cc(-c2cnn(C3CC4(CCCNC4)C3)c2)cnc1N)c1c(Cl)ccc(F)c1Cl", "note": "(some centres undefined)", "GI50": 1090, "TGI": 2490}, {"molecule": "CN1CCN(c2ccc3nc4c(nc3c2C(F)(F)F)C(=O)c2ncccc2C4=O)CC1", "GI50": 1060, "TGI": 2580}, {"molecule": "CCOc1cc(/C=N\\NC(=O)N/N=C/c2ccc(O)c(OCC)c2)ccc1O", "GI50": 1440, "TGI": 7270}, {"molecule": "N#CSCC(=O)c1ccc(Cl)cc1", "GI50": 2280, "TGI": 10400}, {"molecule": "C=C1C(=O)OC2CC3(C)OC3C3OC3C3=CC(OC3=O)C12", "note": "(centres undefined)", "GI50": 1580, "TGI": 3280}, {"molecule": "CN(NC(=O)CC(=O)NN(C)C(=S)c1ccc(Cl)cc1)C(=S)c1ccc(Cl)cc1", "GI50": 23900, "TGI": "> 100000"}, {"molecule": "CN(C)CCOc1nc2ccccc2c2c1-c1ccc(Cl)cc1C2=O", "GI50": 606, "TGI": 1970}, {"molecule": "C/C(=N\\Nc1cccc(Cl)n1)c1ccccn1", "GI50": 764, "TGI": 2420}, {"molecule": "CCc1ccccc1-n1c(N)c(C#N)c(-c2ccc(OC)c(OC)c2)c(C#N)c1=O", "GI50": 37600, "TGI": "> 100000"}, {"molecule": "COc1cnc2c(c1)C(=O)c1c-2n(CCCN2CCN(CCO)CC2)c(=O)c2cc([N+](=O)[O-])ccc12", "GI50": 2470, "TGI": 7540}, {"molecule": "COC(=O)Nc1nc2ccc(Sc3ccccc3)cc2[nH]1", "GI50": 165, "TGI": 1530}, {"molecule": "COc1ccc(C2C3=C(COC3=O)N(CCO)c3cc4c(cc32)OCCO4)cc1OC", "note": "(centres undefined)", "GI50": 786, "TGI": 5190}, {"molecule": "O=C(CC1(O)C(=O)Nc2c(Cl)ccc(Cl)c21)c1ccc(C2CC2)cc1", "note": "(centres undefined)", "GI50": 297, "TGI": 10200}, {"molecule": "COc1cccc(Nc2nccc(Nc3ccc4[nH]ncc4c3)n2)c1", "GI50": 1250, "TGI": 2770}, {"molecule": "CCCCCCC1N=C(N)N=C(N)N1c1ccc(Cl)cc1", "note": "(centres undefined)", "GI50": 1350, "TGI": 4720}, {"molecule": "C[C@@H]1CN2[C@H]3[C@@H]1CC[C@]31CCC(=O)O[C@]1(C)[C@@H]1CC[C@H]3CCC=C3[C@@H]12", "GI50": "> 70000", "TGI": "> 70000"}, {"molecule": "COc1ccc(NC(=O)O[C@H]2[C@H](O[C@H]3[C@@H](O)COC(O[C@H]4C[C@H]5[C@@H]6CC=C7C[C@@H](O)CC[C@]7(C)[C@H]6CC[C@]5(C)[C@H]4[C@H](C)C(=O)CCC(C)C)[C@@H]3OC(C)=O)OC[C@@H](O)[C@@H]2O)cc1", "note": "(some centres undefined)", "GI50": "< 10", "TGI": 630}, {"molecule": "COc1ccc2c(c1)Oc1nc(N)c(C#N)c(N)c1C2Sc1ccc(C)cc1", "note": "(centres undefined)", "GI50": 1200, "TGI": 2600}, {"molecule": "Oc1[nH]c2ccc(Cl)cc2c1/C=c1/ccc2c(c1)N=C(c1cc(F)cc(F)c1)N=2", "GI50": 3460, "TGI": 13200}, {"molecule": "COc1cc(/C=C/C(=O)c2ccc(Nc3nc(Nc4ccccc4)nc(Nc4ccc(Cl)cc4)n3)cc2)cc(OC)c1OC", "GI50": 11700, "TGI": "> 32500"}, {"molecule": "CC(C)N(C[C@H]1O[C@@H](n2cnc3c(N)ncnc32)[C@H](O)[C@@H]1O)C1CC(CCc2nc3ccc(C(C)(C)C)cc3[nH]2)C1", "note": "(some centres undefined)", "GI50": 18400, "TGI": "> 72600"}, {"molecule": "O=[N+]([O-])c1ccc(-c2ccccc2)c([As](=O)(O)O)c1", "GI50": 11800, "TGI": 28100}, {"molecule": "O=C(Nc1ccc(S(=O)(=O)NC2CCCCCC2)cc1)C(c1ccccc1)S(=O)(=O)c1ccc(F)cc1", "note": "(centres undefined)", "GI50": 863, "TGI": 3230}, {"molecule": "COc1cc(C2C(C#N)=C(N)Oc3cc4c(cc32)OCO4)cc2c1OCO2", "note": "(centres undefined)", "GI50": 112, "TGI": 836}, {"molecule": "N#Cc1c(Oc2ccc(F)c(NC(=O)Cc3cccc(C(F)(F)F)c3)c2)ccc2nc(NC(=O)C3CC3)sc12", "GI50": 3980, "TGI": "> 100000"}, {"molecule": "CON", "GI50": "> 100000", "TGI": "> 100000"}, {"molecule": "C=C=[CH][Sn]([c]1ccccc1)([c]1ccccc1)[c]1ccccc1", "GI50": 1340, "TGI": 2660}, {"molecule": "CNCCOc1nc2c3cnccc3cc(-c3cc(OC)c(OC)c(OC)c3)c2c2ccncc12", "GI50": 27.8, "TGI": 106}, {"molecule": "CCOC(=O)C(Cc1ccc(OC)cc1)C(=O)OCC", "GI50": 4170, "TGI": 20600}]}]}
